Results on 19 compounds are retold here after patent US11111233B2, “Amino pyrimidine compound for inhibiting protein tyrosine kinase activity” (Shenzhen TargetRx, Inc., priority 2016, dated 2021).

Read-outs that look alike come from different tables or passages of the source.

The target of one test is WT EGFR (Homo sapiens (Human), UniProt P00533). The experiment in a line: Kinase inhibition assay (HTRF), WT EGFR. Format: biochemical. (In general: Time-resolved FRET reads energy transfer from a long-lived donor to a nearby acceptor.)
Sequence of WT EGFR (P00533 25-1210): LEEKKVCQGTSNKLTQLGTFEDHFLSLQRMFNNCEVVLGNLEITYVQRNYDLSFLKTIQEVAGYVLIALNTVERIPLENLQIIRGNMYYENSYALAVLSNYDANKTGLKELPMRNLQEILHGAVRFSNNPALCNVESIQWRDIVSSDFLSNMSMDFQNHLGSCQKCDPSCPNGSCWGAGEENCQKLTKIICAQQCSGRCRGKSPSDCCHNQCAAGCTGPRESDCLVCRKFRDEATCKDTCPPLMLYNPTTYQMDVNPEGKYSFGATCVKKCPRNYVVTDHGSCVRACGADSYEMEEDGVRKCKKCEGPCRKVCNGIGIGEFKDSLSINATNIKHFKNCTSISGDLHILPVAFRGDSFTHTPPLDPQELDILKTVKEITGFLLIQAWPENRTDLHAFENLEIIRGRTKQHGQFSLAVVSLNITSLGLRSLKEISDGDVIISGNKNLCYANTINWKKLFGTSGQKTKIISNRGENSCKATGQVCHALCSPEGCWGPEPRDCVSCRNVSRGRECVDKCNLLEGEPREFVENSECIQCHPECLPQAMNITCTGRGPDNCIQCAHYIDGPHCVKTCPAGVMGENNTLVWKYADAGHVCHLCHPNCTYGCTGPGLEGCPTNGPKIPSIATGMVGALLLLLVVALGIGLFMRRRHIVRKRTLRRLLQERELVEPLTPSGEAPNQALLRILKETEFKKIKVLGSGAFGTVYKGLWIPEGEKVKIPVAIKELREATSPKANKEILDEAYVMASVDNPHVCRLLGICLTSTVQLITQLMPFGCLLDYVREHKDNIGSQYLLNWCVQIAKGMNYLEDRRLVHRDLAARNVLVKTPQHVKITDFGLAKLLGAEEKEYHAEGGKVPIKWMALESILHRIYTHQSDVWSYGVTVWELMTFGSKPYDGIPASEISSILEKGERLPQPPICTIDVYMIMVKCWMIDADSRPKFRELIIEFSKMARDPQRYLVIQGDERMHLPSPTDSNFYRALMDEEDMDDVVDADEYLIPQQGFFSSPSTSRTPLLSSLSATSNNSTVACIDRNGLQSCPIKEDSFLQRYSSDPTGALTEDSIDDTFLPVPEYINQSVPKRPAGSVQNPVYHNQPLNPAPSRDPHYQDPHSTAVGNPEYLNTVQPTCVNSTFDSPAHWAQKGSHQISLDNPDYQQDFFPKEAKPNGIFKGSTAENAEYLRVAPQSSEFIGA
A further test deals with EGFR [L858R/T790M] (Homo sapiens (Human), UniProt P00533, L858R/T790M). Put plainly: Kinase inhibition assay (HTRF), EGFR [L858R/T790M]. Format: biochemical.
Sequence of EGFR [L858R/T790M] (P00533 25-1210 T790M/L858R): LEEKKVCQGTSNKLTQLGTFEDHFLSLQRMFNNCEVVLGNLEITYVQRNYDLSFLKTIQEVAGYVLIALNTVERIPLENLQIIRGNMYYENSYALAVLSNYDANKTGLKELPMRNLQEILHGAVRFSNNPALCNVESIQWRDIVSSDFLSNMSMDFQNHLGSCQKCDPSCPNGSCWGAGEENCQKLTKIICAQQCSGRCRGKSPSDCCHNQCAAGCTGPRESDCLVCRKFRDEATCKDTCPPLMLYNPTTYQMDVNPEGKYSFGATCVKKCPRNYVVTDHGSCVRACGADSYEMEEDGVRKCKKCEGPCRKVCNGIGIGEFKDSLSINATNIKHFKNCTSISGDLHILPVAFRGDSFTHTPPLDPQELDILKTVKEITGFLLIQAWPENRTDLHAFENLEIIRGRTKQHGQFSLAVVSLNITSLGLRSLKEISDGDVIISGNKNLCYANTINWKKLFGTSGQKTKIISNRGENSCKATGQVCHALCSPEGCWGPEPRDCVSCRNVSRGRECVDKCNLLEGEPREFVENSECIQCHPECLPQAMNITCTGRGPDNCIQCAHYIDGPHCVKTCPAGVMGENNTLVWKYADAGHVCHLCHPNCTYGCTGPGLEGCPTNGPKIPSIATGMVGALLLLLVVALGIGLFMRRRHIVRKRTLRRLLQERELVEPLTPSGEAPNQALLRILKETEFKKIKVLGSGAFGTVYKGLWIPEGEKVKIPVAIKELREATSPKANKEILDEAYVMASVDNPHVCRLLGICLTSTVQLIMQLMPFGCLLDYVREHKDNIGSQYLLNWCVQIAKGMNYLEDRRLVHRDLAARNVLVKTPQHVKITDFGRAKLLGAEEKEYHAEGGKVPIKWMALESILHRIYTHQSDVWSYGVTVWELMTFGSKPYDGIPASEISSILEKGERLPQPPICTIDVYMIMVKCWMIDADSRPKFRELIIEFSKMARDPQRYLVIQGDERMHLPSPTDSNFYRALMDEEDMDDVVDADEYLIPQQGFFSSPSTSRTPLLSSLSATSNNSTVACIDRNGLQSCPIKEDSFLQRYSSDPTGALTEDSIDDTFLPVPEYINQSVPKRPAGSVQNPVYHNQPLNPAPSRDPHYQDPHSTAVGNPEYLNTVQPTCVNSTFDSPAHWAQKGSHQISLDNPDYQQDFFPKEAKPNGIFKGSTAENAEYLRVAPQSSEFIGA
Test [1] has as its system Skin cancer cell line A431 (WT). Put plainly: Cytotoxicity test (MTS cell viability), A431. Format: cell-based. The conditions noted are these: Homo sapiens.
The subject of test [2] is lung cancer cells HCC827 (Del19). Put plainly: Cytotoxicity test (MTS cell viability), HCC827. Format: cell-based. The conditions noted are these: Homo sapiens.
The mark [3] stands for this setting: A-431, MTS, 72 hours, read-out: A431 (WT) IC50.
Setting [4] is: HCC827, 72 h, read-out: HCC827 (Del19) IC50(nM).
Where [5] appears, read: HTRF Kinase TK kit, 10 min pre-incubation, 20 min reaction.
Setting [6] is: HTRF Kinase TK kit, 10 min pre-incubation, 20 min reaction, read-out: EGFR(L858R/T790M) IC50.
Setting [7] is: HCC827, MTS, 72 hours, read-out: HCC827 (Del19) IC50.

On to `C=CC(=O)Nc1cc(Nc2nccc(-c3cc(F)c4nc(C)n(C(C)C)c4c3)n2)c(OC)cc1OCCOC` [Example 10, N-(2-(2-methoxy-ethyl-oxy)-5-((4-(4-fluoro-1-isopropyl-2-methyl-1H-benzo[d]imidazole-6-yl)pyrimidin-2-yl)amino)-4-methoxyphenyl)acrylamide], for which the IC50 against WT EGFR was above 0.1 µM; on EGFR [L858R/T790M] it was 0.05 to 0.1 µM; in test [1] (setting [3]) it was above 1000 nM; in test [2] (setting [4]), 400 to 1000 nM.
With `C=CC(=O)Nc1cc(Nc2nccc(-c3cc(F)c4nc(C)n(C(C)C)c4c3)n2)c(OC)cc1N1CCC(N2CCOCC2)CC1` [Example 13], the IC50 against WT EGFR (setting [5]) is 0.001 to 0.05 µM; on EGFR [L858R/T790M] (setting [6]), 0.001 to 0.05 µM; in test [1] (setting [3]), above 1000 nM; in test [2] (setting [4]) it was 10 to 100 nM.
Take `C=CC(=O)Nc1cc(Nc2nccc(-c3cc(F)c4nc(C)n(C(C)C)c4c3)n2)c(OC)cc1N1CCC(O)CC1` [Example 17, N-(2-(4-hydroxypiperidine-1-yl)-5-((4-(4-fluoro-1-isopropyl-2-methyl-1H-benzo[d]imidazole-6-yl)pyrimidin-2-yl)amino)-4-methoxyphenyl)acrylamide]: the IC50 against WT EGFR (setting [5]) was above 0.1 µM; at EGFR [L858R/T790M] (setting [6]), 0.001 to 0.05 µM; in test [1] (setting [3]) it was above 1000 nM; in test [2] (setting [4]), 100 to 400 nM.
For the compound `C=CC(=O)Nc1cc(Nc2nccc(-c3cc(F)c4nc(C)n(C5CC5)c4c3)n2)c(OC)cc1N(C)CCN(C)C` [Example 20, N-(5-((4-(1-cyclopropyl-4-fluoro-2-methyl-1H-benzo[d]imidazole-6-yl)pyrimidin-2-yl)amino)-2-((2-(dimethylamino)ethyl)(methyl)amino)-4-methoxyphenyl)acrylamide], the IC50 against WT EGFR (setting [5]) was 0.001 to 0.05 µM; on EGFR [L858R/T790M] (setting [6]) it was below 0.001 µM; in test [1] (setting [3]) it was 100 to 400 nM; in test [2] (setting [7]), 10 to 100 nM.
In the case of `C=CC(=O)Nc1cc(Nc2nccc(-c3cc(F)c4nc(CF)n(C(C)C)c4c3)n2)c(OC)cc1N(C)CCN(C)C` [Example 21, N-(2-((2-(dimethylamino)ethyl)(methyl)amino)-5-((4-(4-fluoro-2-(fluoromethyl)-1-isopropyl-1H-benzo[d]imidazole-6-yl)pyrimidin-2-yl)amino)-4-methoxyphenyl)acrylamide], the IC50 is 0.001 to 0.05 µM against WT EGFR (setting [5]), below 0.001 µM at EGFR [L858R/T790M] (setting [6]), 100 to 400 nM in test [1] (setting [3]) and below 10 nM in test [2] (setting [7]).
Regarding `C=CC(=O)Nc1cc(Nc2nccc(-c3cnc4nc(C)n(C(C)C)c4c3)n2)c(OC)cc1N(C)CCN(C)C` [Example 22, N-(2-((2-(dimethylamino)ethyl)(methyl)amino)-5-((4-(1-isopropyl-2-methyl-1H-imidazo[4,5-b]pyridine-6-yl)pyrimidin-2-yl)amino)-4-methoxyphenyl)acrylamide], the IC50 on WT EGFR (setting [5]) fell in the range of 0.001 to 0.05 µM; on EGFR [L858R/T790M] (setting [6]), 0.001 to 0.05 µM; in test [1] (A-431, 72 h, read-out: A431 (WT) IC50(nM)), 100 to 400 nM; in test [2] (setting [4]) it was 10 to 100 nM.
Take `C=CC(=O)Nc1cc(Nc2nccc(-c3ccc4nc(OC)n(C(C)C)c4c3)n2)c(OC)cc1N(C)CCN(C)C` [Example 24, N-(2-((2-(dimethylamino)ethyl)(methyl)amino)-5-((4-(1-isopropyl-2-methoxy-1H-benzo[d]imidazole-6-yl)pyrimidin-2-yl)amino)-4-methoxyphenyl)acrylamide]: the IC50 against WT EGFR (setting [5]) lay within 0.001 to 0.05 µM; on EGFR [L858R/T790M] (setting [6]), 0.001 to 0.05 µM; in test [1] (setting [3]) it was 400 to 1000 nM; in test [2] (setting [7]), 10 to 100 nM.
For the compound `C=CC(=O)Nc1cc(Nc2nccc(-c3ccc4oc(=O)n(C)c4c3)n2)c(OC)cc1N(C)CCN(C)C` [Example 25, N-(2-((2-(dimethylamino)ethyl)(methyl)amino)-4-methoxy-5-((4-(3-methyl-2-oxo-2,3-di hydrobenzo[d]oxazole-5-yl)pyrimidin-2-yl)amino)phenyl)acrylamide], the IC50 on WT EGFR (setting [5]) is 0.001 to 0.05 µM; on EGFR [L858R/T790M] (setting [6]), 0.001 to 0.05 µM; in test [1] (setting [3]), above 1000 nM; in test [2] (setting [7]), 100 to 400 nM.
As to `C=CC(=O)Nc1cc(Nc2nccc(-c3cc(F)c4cnn(C(C)C)c4c3)n2)c(OC)cc1N(C)CCN(C)C` [Example 26, N-(2-((2-(dimethylamino)ethyl)(methyl)amino)-5-((4-(4-fluoro-1-isopropyl-1H-indazole-6-yl)pyrimidin-2-yl)amino)-4-methoxyphenyl)acrylamide], the IC50 against WT EGFR (setting [5]) was 0.001 to 0.05 µM; at EGFR [L858R/T790M] (setting [6]), below 0.001 µM; in test [1] (setting [3]), 400 to 1000 nM; in test [2] (setting [7]), 10 to 100 nM.
With `C=CC(=O)Nc1cc(Nc2nccc(-c3ccc4cnn(C(C)C)c4c3)n2)c(OC)cc1N(C)CCN(C)C` [Example 27, N-(2-((2-(dimethylamino)ethyl)(methyl)amino)-5-((4-(1-isopropyl-1H-indazole-6-yl)pyrimidin-2-yl)amino)-4-methoxyphenyl)acrylamide], the IC50 against WT EGFR (setting [5]) is 0.001 to 0.05 µM; on EGFR [L858R/T790M] (setting [6]), below 0.001 µM; in test [1] (setting [3]) it was 400 to 1000 nM; in test [2] (setting [7]), 10 to 100 nM.
In the case of `C=CC(=O)Nc1cc(Nc2nccc(-c3cc(F)c4nc(C)c(C(C)C)n4c3)n2)c(OC)cc1N(C)CCN(C)C` [Example 28, N-(2-((2-(dimethylamino)ethyl)(methyl)amino)-5-((4-(8-fluoro-3-isopropyl-2-methylimidazo[1,2-a]pyridine-6-yl)pyrimidin-2-yl)amino)-4-methoxyphenyl)acrylamide], the IC50 lay in the range of 0.001 to 0.05 µM on WT EGFR (setting [5]), 0.001 to 0.05 µM at EGFR [L858R/T790M] (setting [6]), 400 to 1000 nM in test [1] (setting [3]) and 10 to 100 nM in test [2] (setting [7]).
For the compound `C=CC(=O)Nc1cc(Nc2nccc(-c3cc(F)c4nc(C)cn4c3)n2)c(OC)cc1N(C)CCN(C)C` [Example 29, N-(2-((2-(dimethylamino)ethyl)(methyl)amino)-5-((4-(8-fluoro-2-methylimidazo[1,2-a]pyridine-6-yl)pyrimidin-2-yl)amino)-4-methoxyphenyl)acrylamide], the IC50 lay in the range of 0.001 to 0.05 µM against WT EGFR (setting [5]), 0.001 to 0.05 µM at EGFR [L858R/T790M] (setting [6]), 400 to 1000 nM in test [1] (setting [3]) and 100 to 400 nM in test [2] (setting [7]).
Turning to `C=CC(=O)Nc1cc(Nc2nccc(-c3cc(OC(C)(C)C)c4nc(C)n(C(C)C)c4c3)n2)c(OC)cc1N(C)CCN(C)C` [Example 30, N-(5-((4-(4-(tert-butoxy)-1-isopropyl-2-methyl-1H-benzo[d]imidazole-6-yl)pyrimidin-2-yl)amino)-2-((2-(dimethylamino)ethyl)(methyl)amino)-4-methoxyphenyl)acrylamide], the IC50 against WT EGFR (setting [5]) was below 0.001 µM; at EGFR [L858R/T790M] (setting [6]), below 0.001 µM; in test [1] (setting [3]), above 1000 nM; in test [2] (setting [7]), below 10 nM.
On to `C=CC(=O)Nc1cc(Nc2nccc(-c3cc(F)c4nc(C)oc4c3)n2)c(OC)cc1N(C)CCN(C)C` [Example 32, N-(2-((2-(dimethylamino)ethyl)(methyl)amino)-5-((4-(4-fluoro-2-methylbenzo[d]oxazole-6-yl)pyrimidin-2-yl)amino)-4-methoxyphenyl)acrylamide], for which the IC50 at WT EGFR (setting [5]) is 0.001 to 0.05 µM; on EGFR [L858R/T790M] (setting [6]), 0.001 to 0.05 µM; in test [1] (setting [3]) it was above 1000 nM; in test [2] (setting [7]), 10 to 100 nM.
Regarding `C=CC(=O)Nc1cc(Nc2nccc(-c3cc(F)c4ocnc4c3)n2)c(OC)cc1N(C)CCN(C)C` [Example 33, N-(2-((2-(dimethylamino)ethyl)(methyl)amino)-5-((4-(7-fluorobenzo[d]oxazole-5-yl)pyrimidin-2-yl)amino)-4-methoxyphenyl)acrylamide], the IC50 was 0.001 to 0.05 µM on WT EGFR (setting [5]), below 0.001 µM at EGFR [L858R/T790M] (setting [6]), above 1000 nM in test [1] (setting [3]) and 10 to 100 nM in test [2] (setting [7]).
Consider `C=CC(=O)Nc1cc(Nc2ncc(F)c(-c3cc(F)c4nc(C)c(C(C)C)n4c3)n2)c(OC)cc1N(C)CCN(C)C` [Example 34, N-(2-((2-(dimethylamino)ethyl)(methyl)amino)-5-((5-fluoro-4-(8-fluoro-3-isopropyl-2-methylimidazo[1,2-a]pyridine-6-yl)pyrimidin-2-yl)amino)-4-methoxyphenyl)acrylamide], for which the IC50 against WT EGFR (setting [5]) is 0.001 to 0.05 µM; at EGFR [L858R/T790M] (setting [6]), below 0.001 µM; in test [1] (setting [3]) it was above 1000 nM; in test [2] (setting [7]), 10 to 100 nM.
Regarding `C=CC(=O)Nc1cc(Nc2nccc(-c3ccc4nc(C)n(C(C)C)c4c3)n2)c(OC)cc1N(C)CCN(C)C` [Example 35, N-(2-((2-(dimethylamino)ethyl)(methyl)amino)-5-((4-(1-isopropyl-2-methyl-1H-benzo[d]imidazole-6-yl)pyrimidin-2-yl)amino)-4-methoxyphenyl)acrylamide], the IC50 against WT EGFR (setting [5]) was 0.001 to 0.05 µM; on EGFR [L858R/T790M] (setting [6]), below 0.001 µM; in test [1] (setting [3]) it was 400 to 1000 nM; in test [2] (setting [7]) it was 10 to 100 nM.
As to `C=CC(=O)Nc1cc(Nc2nccc(-c3cc(F)c4[nH]ncc4c3)n2)c(OC)cc1N(C)CCN(C)C` [Example 38, N-(2-((2-(dimethylamino)ethyl)(methyl)amino)-5-((4-(7-fluoro-1H-indazole-5-yl)pyrimidin-2-yl)amino)-4-methoxyphenyl)acrylamide], the IC50 against WT EGFR (setting [5]) was 0.001 to 0.05 µM; on EGFR [L858R/T790M] (setting [6]), below 0.001 µM; in test [1] (setting [3]) it was above 1000 nM; in test [2] (setting [7]), 10 to 100 nM.
The like results for `C=CC(=O)Nc1cc(Nc2nccc(-c3cc(F)c4nn(C)cc4c3)n2)c(OC)cc1N(C)CCN(C)C` [Example 40, N-(2-((2-(dimethylamino)ethyl)(methyl)amino)-5-((4-(7-fluoro-2-methyl-2H-indazole-5-yl)pyrimidin-2-yl)amino)-4-methoxyphenyl)acrylamide] were, in that order, 0.001 to 0.05 µM, below 0.001 µM, 400 to 1000 nM and 10 to 100 nM.
